Values quoted from earlier work as cited in patent US20160076057A1, “INHIBITION OF METHANE AND HYDROGEN SULFIDE PRODUCTION IN ANAEROBIC DIGESTER ANIMAL FARMS, LANDFILLS, SEDIMENTS AND SEWER SYSTEMS” (Innovative Environmental Technologies, Inc., priority 2014, published 2016).

Tests used:
[1] = system: F420-dependent NADP oxidoreductase enzyme; settings: Sharma et al. (2011); for affinity for the model protein compared to natural ligand F420: 3D model structure, F420 binding cavity
Methanobrevibacter = settings: Miller and Wolin (2001)
non-methanogens = settings: Miller and Wolin (2001)
[2] = system: pure methanogenic bacteria; settings: Wolin and Miller (2005)
cellulolytic bacteria = settings: Wolin and Miller (2005)

Compound	affinity for the model protein compared to natural ligand F420 [1]	blocking the activity site for methane production [1]	methane formation (Methanobrevibacter)	concentration that completely inhibited growth (Methanobrevibacter; per ml of culture medium)	IC50 (Methanobrevibacter; per ml of culture medium, read-out: concentration giving 50% inhibition of growth)	populations of the non-methanogens (non-methanogens)	growth and activity of pure methanogenic bacteria [2]	effect on cellulolytic bacteria (cellulolytic bacteria)
CC[C@H](C)C(=O)O[C@H]1CCC=C2C=C[C@H](C)[C@H](CC[C@@H]3C[C@@H](O)CC(=O)O3)[C@H]21 [compactin, compactin (mevastatin)]	more affinity	very effective						
CC[C@H](C)C(=O)O[C@H]1C[C@@H](C)C=C2C=C[C@H](C)[C@H](CC[C@@H]3C[C@@H](O)CC(=O)O3)[C@H]21 [lovastatin, Lovastatin]	more affinity	very effective	significantly inhibited	10 nmol/mL	4 µM	not affected	significantly reduced	without any negative effect
